Here are results for 58 compounds from patent US20260193244A1 (Protego Biopharma, Inc., priority 2022, published 2026).

The structures appear in SMILES notation. Counter-ions that a name gives are not always drawn. Where only a bound is given, the exact number is not on record here.

The assay has as its system IRE1-XBP1s (HEK293 T-REx cells stably expressing the XBP1-RLuc splicing reporter). The assay can be described thus: IRE1-XBP1s activation Assay (XBP1-RLuc splicing reporter, luminescence relative to thapsigargin, with or without IRE1 inhibitor 4μ8C). The conditions noted are these: 18 h, compound 10 μM, luminescence as percentage signal relative to thapsigargin (Tg) (500 nM, 18 h). Format: cell-based. On the procedure:
IRE1-XBP1s activation Assay: HEK293 T-REx cells stably expressing the XBP1-RLuc splicing reporter were treated with an IRE1-XBP1s activator provided herein (10 μM) in the presence or absence of the IRE1 active site inhibitor 4μ8C (32 μM) for 18 h. Luminescence was shown as the percentage signal relative to thapsigargin (Tg) (500 nM, 18 h).
The compound `Cc1ccc(OC2CCCN(C(=O)Cn3cc(NC(=O)CCOc4cc(Cl)ccc4F)cn3)C2)cc1` (stereo not shown) [Compound 80] showed an activation at 10 µM of at least 50%.

Consider `Cc1ccc(OCCN(C)C(=O)Cn2cc(NC(=O)[C@H]3CC[C@@H](Oc4ccccc4)CC3)cn2)cc1` [Compound 1, (cis)-N-(1-(2-(methyl(2-(p-tolyloxy)ethyl)amino)-2-oxoethyl)-1H-pyrazol-4-yl)-4-phenoxycyclohexanecarboxamide], for which the activation at 10 µM is below 30%.

As to `COc1ccccc1OCCC(=O)Nc1cnn(CC(=O)N2CCCCC(Oc3ccccc3)C2)c1` (stereo not shown) [Compound 51], the activation at 10 µM is below 30%.

Compound `Cc1ccc(N2CCCN(C(=O)Cn3cc(NC(=O)CCOc4ccccc4)cn3)CC2)cc1` [Compound 23] registered an activation at 10 µM below 30%.

In turn, `Cc1ccc(O[C@H]2CCCN(C(=O)Cn3cc(NC(=O)C4CC(Oc5cccnc5N)C4)cn3)C2)cc1` (stereo partly shown) [Compound 107] displayed an activation at 10 µM of 30 to 50%.

Turning to `Cc1ccc(OC2CCCN(C(=O)Cn3cc(NC(=O)CCOc4ccccc4C)cn3)C2)cc1` (stereo not shown) [Compound 36], the activation at 10 µM was at least 50%.

Consider `Cc1ccc(O[C@@H]2CCCN(C(=O)Cn3cc(NC(=O)CCOc4ccc(F)cc4C)cn3)C2)cc1` [Compound 93], for which the activation at 10 µM is at least 50%.

On to `Cc1ccc(OCCN(C)C(=O)Cn2cc(NC(=O)COC3CCCN(c4ccnc(F)n4)C3)cn2)cc1` (stereo not shown) [Compound 137], for which the activation at 10 µM was below 30%.

`Cc1ccc(OC2CCCN(C(=O)Cn3cc(NC(=O)CCOc4ccc(F)cc4C)cn3)C2)cc1` (stereo not shown) [Compound 98] came in with an activation at 10 µM of at least 50%.

On to `[2H]C([2H])([2H])c1ccc(OCCN(C)C(=O)Cn2cc(NC(=O)C3COc4ccccc4O3)cn2)cc1` (stereo not shown) [Compound 200], for which the activation at 10 µM was at least 50%.

As to `Cc1ccc(OCCN(C)C(=O)Cn2cc(NC(=O)C3COc4cccc(C(C)C)c4O3)cn2)cc1` (stereo not shown) [Compound 126], the activation at 10 µM was below 30%.

For `COc1ccccc1OCCC(=O)Nc1cnn(CC(=O)N2CCCC(Oc3ccc(C)cc3)C2)c1` (stereo not shown) [Compound 40], the activation at 10 µM was 30 to 50%.

In turn, `Cc1ccccc1OCCC(=O)Nc1cnn(CC(=O)N(C)c2ccc(Oc3ccccc3)cc2)c1` [Compound 34] returned an activation at 10 µM below 30%.

Consider `Cc1cccc(OCCC(=O)Nc2cnn(CC(=O)N(C)c3ccc(Oc4ccccc4)cc3)c2)c1` [Compound 35], for which the activation at 10 µM is below 30%.

In the case of `Cc1ccc(C2CCN(C(=O)Cn3cc(NC(=O)CCOc4ccccc4)cn3)C2)cc1` (stereo not shown) [Compound 18], the activation at 10 µM was below 30%.

With `CN(CCOc1ccc(C(F)(F)F)cn1)C(=O)Cn1cc(NC(=O)C2CNc3ccccc3O2)cn1` (stereo not shown) [Compound 191], the activation at 10 µM was below 30%.

For the compound `Cc1cccc(OCCC(=O)Nc2cnn(CC(=O)N(C)c3ccccc3Oc3ccccc3)c2)c1` [Compound 43], the activation at 10 µM is below 30%.

In turn, `COc1ccccc1OCCC(=O)Nc1cnn(CC(=O)N(C)c2ccc(Oc3ccc(C)cc3)cc2)c1` [Compound 25] came in with an activation at 10 µM of 30 to 50%.

`Cc1ccc(OCCN(C)C(=O)Cn2cc(NC(=O)C3CCN(c4ccccc4)C3)cn2)cc1` (stereo not shown) [Compound 64] registered an activation at 10 µM below 30%.

Compound `Cc1ccc(OCCN(C)C(=O)Cn2cc(NC(=O)C3CCCN(c4ccccc4)C3)cn2)cc1` (stereo not shown) [Compound 61] registered an activation at 10 µM below 30%.

In turn, `Cc1ccc(OCCN(C)C(=O)Cn2cc(NC(=O)C3COc4ccccc4C3)cn2)cc1` (stereo not shown) [Compound 60] registered an activation at 10 µM below 30%.

Regarding `Cc1ccc(C(F)(F)c2ccc(N(C)C(=O)Cn3cc(NC(=O)CCOc4ccccc4)cn3)cc2)cc1` [Compound 58], the activation at 10 µM was below 30%.

`Cc1ccc(OC2CCCN(C(=O)Cn3cc(NC(=O)CCOc4ccc(Cl)cc4)cn3)C2)cc1` (stereo not shown) [Compound 38] displayed an activation at 10 µM of 30 to 50%.

Compound `Cc1ccc(OCCN(C)C(=O)Cn2cc(N(C)C(=O)C3CN(Cc4ccccc4)CCO3)cn2)cc1` (stereo not shown) [Compound 14] returned an activation at 10 µM below 30%.

Take `Cc1ccc(O[C@H]2CCCN(C(=O)Cn3cc(NC(=O)C4CNc5ccccc5O4)cn3)C2)cc1` (stereo partly shown) [Compound 120]: the activation at 10 µM is below 30%.

With `Cc1ccc(OCCN(C)C(=O)Cn2cc(NC(=O)c3cnccc3NC(=O)OC(C)(C)C)cn2)cc1` [Compound 111], the activation at 10 µM is at least 50%.

`Cc1ccc(OC2CCCC23CN(C(=O)Cn2cc(NC(=O)C4COc5ccccc5O4)cn2)C3)cc1` (stereo not shown) [Compound 199] returned an activation at 10 µM below 30%.

Regarding `O=C(Cn1cc(NC(=O)[C@H]2C[C@H](Oc3ccccn3)C2)cn1)N1CCC[C@H](Oc2ccc(C(F)(F)F)cn2)C1` [Compound 145], the activation at 10 µM was below 30%.

The compound `Cc1ccc(O[C@H]2CCCN(C(=O)Cn3cc(NC(=O)C4CC(Oc5ccccn5)C4)cn3)C2)cc1` (stereo partly shown) [Compound 105] showed an activation at 10 µM of 30 to 50%.

In the case of `O=C(Cn1cc(NC(=O)[C@H]2C[C@H](Oc3ccccc3)C2)cn1)N1CCC[C@H](Oc2ccc(C(F)(F)F)cn2)C1` [Compound 109], the activation at 10 µM was below 30%.

Compound `O=C(CCOc1ccc(Cl)cc1)Nc1cnn(CC(=O)N2CCCCC(Oc3ccccc3)C2)c1` (stereo not shown) [Compound 50] gave an activation at 10 µM below 30%.

As to `Cc1ccc(OCCN(C)C(=O)Cn2cc(NC(=O)c3nc4ccccc4o3)cn2)cc1` [Compound 153], the activation at 10 µM lay in the range of 30 to 50%.

`Cc1ccc(OCCN(C)C(=O)Cn2cc(NC(=O)CC3CN(C(=O)OC(C)(C)C)c4cc(F)ccc4O3)cn2)cc1` (stereo not shown) [Compound 97] registered an activation at 10 µM of at least 50%.

Turning to `CN(C(=O)Cn1cc(NC(=O)CCOc2ccccc2)cn1)C12CCC(Oc3ccc(C(F)(F)F)cc3)(CC1)CC2` [Compound 70], the activation at 10 µM was at least 50%.

`Cc1ccc(O[C@H]2CCCN(C(=O)Cn3cc(NC(=O)C4CC(Oc5cccc(C)n5)C4)cn3)C2)cc1` (stereo partly shown) [Compound 151] had an activation at 10 µM below 30%.

As to `Cc1ccc(Oc2ccc(N(C)C(=O)Cn3cc(NC(=O)CCOc4ccccc4Cl)cn3)cc2)cc1` [Compound 24], the activation at 10 µM was in the range of 30 to 50%.

With `Cc1ccc(OCCN(C)C(=O)Cn2cc(NC(=O)C3CNCC3Nc3ccnc(O)n3)cn2)cc1` (stereo not shown) [Compound 133], the activation at 10 µM is below 30%.

`Cc1ccc(OC2CC3CC2N(C(=O)Cn2cc(NC(=O)CCNc4ccnc(F)n4)cn2)C3)cc1` (stereo not shown) [Compound 174] returned an activation at 10 µM below 30%.

In the case of `COc1ccc(N(C)C(=O)Cn2cc(NC(=O)CCOc3ccccc3)cn2)cc1` [Compound 113], the activation at 10 µM was below 30%.

`Cc1ccccc1OCCC(=O)Nc1cnn(CC(=O)N2CCCCC(Oc3ccccc3)C2)c1` (stereo not shown) [Compound 49] came in with an activation at 10 µM below 30%.

For the compound `Cc1ccc(O[C@H]2CCCN(C(=O)Cn3cc(NC(=O)CCNc4nccc(F)n4)cn3)C2)cc1` [Compound 136], the activation at 10 µM was below 30%.

Consider `Cc1ccc(OCCN(C)C(=O)Cn2cc(NC(=O)C34CC(Nc5ncc(F)cn5)(C3)C4)cn2)cc1` [Compound 169, 3-[(5-fluoropyrimidin-2-yl)amino]-N-[1-[2-[methyl-[2-(4-methylphenoxy)ethyl]amino]-2-oxo-ethyl]pyrazol-4-yl]bicyclo[1.1.1]pentane-1-carboxamide], for which the activation at 10 µM was below 30%.

`COc1ccc(OCCC(=O)Nc2cnn(CC(=O)N3CCCC(Oc4ccc(C)cc4)C3)c2)cc1` (stereo not shown) [Compound 41, 3-(4-methoxyphenoxy)-N-(1-(2-oxo-2-(3-(p-tolyloxy)piperidin-1-yl)ethyl)-1H-pyrazol-4-yl)propanamide hydrochloride]: the activation at 10 µM was below 30%.

Regarding `Cc1ccc(OCCN(C)C(=O)Cn2cc(NC(=O)[C@H]3C[C@@H](c4ccccc4)C3)cn2)cc1` [Compound 6], the activation at 10 µM was at least 50%.

The compound `Cc1ccc(OC2CCCN(C(=O)Cn3cc(NC(=O)CCOc4cncc(C(F)(F)F)c4)cn3)C2)cc1` (stereo not shown) [Compound 89] returned an activation at 10 µM below 30%.

The compound `Cc1ccc(OC2CCCN(C(=O)Cn3cc(NC(=O)CCOc4ccccc4C(F)(F)F)cn3)C2)cc1` (stereo not shown) [Compound 83] showed an activation at 10 µM below 30%.

In turn, `CN(CCOc1ccc(C(F)(F)F)cn1)C(=O)Cn1cc(NC(=O)[C@H]2COc3ccccc3O2)cn1` [Compound 192] showed an activation at 10 µM of 30 to 50%.

On to `Cc1ccc(O[C@H]2CCCN(C(=O)Cn3cc(NC(=O)[C@H]4CNc5ccccc5O4)cn3)C2)cc1` [Compound 122], for which the activation at 10 µM is below 30%.

In turn, `Cc1c(F)cc(O[C@@H]2CCCN(C(=O)Cn3cc(NC(=O)CCNc4ccnc(F)n4)cn3)C2)cc1F` [Compound 173] came in with an activation at 10 µM of 30 to 50%.

Consider `Cc1ccc(OCCN(C)C(=O)Cn2cc(N(C)C(=O)C3=C(c4ccccc4)CCCC3)cn2)cc1` [Compound 205], for which the activation at 10 µM is below 30%.

Take `Cc1ccc(OC2CCCC23CN(C(=O)Cn2cc(NC(=O)C4CNc5ccccc5O4)cn2)C3)cc1` (stereo not shown) [Compound 198, N-(1-(2-oxo-2-(5-(p-tolyloxy)-2-azaspiro[3.4]octan-2-yl)ethyl)-1H-pyrazol-4-yl)-3,4-dihydro-2H-benzo[b][1, 4]oxazine-2-carboxamide]: the activation at 10 µM is below 30%.

Consider `Cc1ccc(O[C@H]2CCCN(C(=O)Cn3cc(NC(=O)CCOc4c(Br)cncc4[N+](=O)[O-])cn3)C2)cc1` [Compound 165], for which the activation at 10 µM is at least 50%.

In turn, `Cc1ccc(O[C@H]2CCCN(C(=O)Cn3cc(NC(=O)COc4cccnc4)cn3)C2)cc1` [Compound 149] gave an activation at 10 µM below 30%.

In turn, `Cc1ccc(OCCN(C)C(=O)Cn2cc(NC(=O)[C@@H]3CCC[C@@H](Oc4ccccc4)C3)cn2)cc1` [Compound 13] came in with an activation at 10 µM below 30%.

Regarding `Cc1ccc(OCCN(C)C(=O)Cn2cc(NC(=O)c3cccc(Oc4ccccc4)c3)cn2)cc1` [Compound 2], the activation at 10 µM is below 30%.

`Cc1ccc(Oc2ccccc2N(C)C(=O)Cn2cc(NC(=O)CCOc3ccccc3)cn2)cc1` [Compound 57] returned an activation at 10 µM below 30%.

In turn, `Cc1ccc(OCCN(C)C(=O)Cn2cc(NC(=O)[C@H]3CC[C@H](Oc4ccccc4)CC3)cn2)cc1` [Compound 5] showed an activation at 10 µM below 30%.

`Cc1ccc(OCCN(C)C(=O)Cn2cc(NC(=O)C3CCC(Oc4ccncc4)CC3)cn2)cc1` (stereo not shown) [Compound 102]: the activation at 10 µM is at least 50%.
